Results as given in patent US5510356A, “Bisquinolines and processes for their production and use to treat malaria” (priority 1991, dated 1996).
“Also recorded” adds a separate entry of the source.

Legend:
[1] = Solubility in DMSO (noted in NMR work); conditions: 13C NMR spectra not obtainable
P. falciparum = assay: In vitro activity against P. falciparum (both clones, D-6 and W-2); format: cell-based, Plasmodium falciparum; conditions: for Resistance Index: IC50 (W2)/IC50 (D6) ratio
Procedure: (§1) In vitro activity against P. falciparum was determined using a modification of the semiautomated microdilution technique of Desjardins et al. (1979) and Milhous et al. (1985). Two P. falciparum malaria parasite clones, designated as Sierra Leone (D-6) and Indochina (W-2), are used in susceptibility testing. The former is resistant to mefloquine, and the latter to CQ, pyrimethamine, sulfadoxine, and quinine. Test compounds are dissolved in dimethylsulfoxide, and solutions serially diluted with culture media. Erythrocytes with 0.25 to 0.5% parasitemia are added to each well of a 96-well microdilution plate to give a final hematocrit of 1.5%. […] Results are reported as […] (ng/mL) values. For a complete description of this assay, see Milhous et al. (1985) and Lin et al. (1987).

[2] = system: P. falciparum clone D-6 (Sierra Leone); format: cell-based, Plasmodium falciparum; conditions: D-6 clone (resistant to mefloquine)
Procedure: as §1

[3] = system: P. falciparum clone W-2 (Indochina); format: cell-based, Plasmodium falciparum
Procedure: as §1

[4] = system: P. berghei (strain KBG 173); assay: In vivo activity against P. berghei in mice, single subcutaneous dose 3 days after infection; set-up: species or system Plasmodium berghei; mice; conditions: for P. berghei T-C: single dose 3 days post infection, n = 5
Procedure: In vivo activity against P. berghei was obtained against a drug-sensitive strain of P. berghei (strain KBG 173) (Osdene et al., 1967). Each test compound is administered subcutaneous to five male mice per dilution in a single subcutaneous dose 3 days after infection. Results are expressed in T-C values which indicate the mean survival time of the treated mice beyond that of the control animals; untreated mice survive on average 6.2 days. Compounds are classified as active (A) when the mean survival time of the treated mice is twice that of the controls (>6.2 days), and curative (C) when one or more test animals live 60 days post-infection. Deaths from 0-2 days post-treatment are attributed to toxicity (T).

CQ-resistant malaria = conditions: cited from earlier work; for activity against malaria / CQ-resistant malaria (in words): literature
P. berghei = conditions: cited from earlier work
[5] = compared to CQ, Li et al., 1981a, Lin et al., 1982

Clc1ccc2c(NCCNc3ccnc4cc(Cl)ccc34)ccnc2c1 [Compound 1, N^1 N^2, -Bis(7-chloroquinolin-4-y1)ethane-1,2-diamine]
solubility in DMSO [1]: low solubilities in DMSO
in vitro activity against P. falciparum (in words) (P. falciparum): approximately an order of magnitude less potent in vitro
Resistance Index (P. falciparum): 1.6
antimalarial activity (in words) (P. falciparum; general statement, refers to Table I): antimalarial activity
P. falciparum IC50 (nM) D-6 [2]: 17.3 nM
P. falciparum IC50 (nM) W-2 [3]: 27.0 nM
in vivo activity against P. berghei (in words) [4]: without activity in vivo
P. berghei T-C ([4]; 40 mg/kg s.c.): 0.0 days
P. berghei T-C ([4]; 160 mg/kg s.c.): 0.4 days
P. berghei T-C ([4]; 640 mg/kg s.c.): 1.4 days

Clc1ccc2c(N3CCN(CCCN4CCN(c5ccnc6cc(Cl)ccc56)CC4)CC3)ccnc2c1 [PQ, piperaquine]
Resistance Index (P. falciparum): 1.9
P. falciparum IC50 (nM) D-6 [2]: 8.3 nM
P. falciparum IC50 (nM) W-2 [3]: 16.1 nM
duration of action (CQ-resistant malaria; [5]): longer duration of action
toxicity (CQ-resistant malaria; [5]): less toxicity when compared to CQ
activity against malaria / CQ-resistant malaria (in words) (CQ-resistant malaria): active against malaria; also recorded: very effective against CQ-resistant malaria in China

dichloroquinazine
resistance of P. berghei (P. berghei; CQ-resistant strain of P. berghei, Warhurst, 1966): Resistance to dichloroquinazine, however, is noted for a CQ-resistant strain of P. berghei
activity against malaria / CQ-resistant malaria (in words) (CQ-resistant malaria): active against CQ-resistant falciparum malaria

Clc1ccc2c(NN3CCN(Nc4ccnc5cc(Cl)ccc45)CC3)ccnc2c1 [1,4-bis(7-chloro-4-quinolylamino)piperazine]
activity against P. berghei in mice, compared with CQ (P. berghei; mice, Singh et al., 1971): significantly more effective than is CQ against P. berghei in mice
activity against malaria / CQ-resistant malaria (in words) (CQ-resistant malaria): active against malaria
